Measured values: patent US20240059671A1, “TYROSINE KINASE 2 (TYK2) DEGRADATION COMPOUNDS AND METHODS OF USE” (CULLGEN (SHANGHAI), INC., priority 2020, published 2024)

Target: TYK2 (Homo sapiens, UniProt P29597)
Assay: TYK2 protein degradation in MOLT-4 cells by immunoblotting
Format: cell-based
Set-up: endogenous in cells; host or cells: MOLT-4
Details: MOLT-4 cells, 24 hours
Protocol: MOLT-4 cells were treated with compounds at 0.5 and 5 μM concentrations for 24 hours.
MOLT-4 cells were treated with CPD-038, CPD-039, and CPD-040 at 0.04, 0.2, 1, and 5 μM concentrations for 24 hours.
MOLT-4 or NOMO-1 cells were cultured at 37° C. with 5% CO2 in RPMI 1640 Medium supplemented with 10% fetal bovine serum. Cells were authenticated using the short tandem repeat (STR) assays. Mycoplasma test results were negative.
Cultured cells were washed with cold PBS once and lysed in cold RIPA buffer supplemented with protease inhibitors and phosphatase inhibitors (Beyotime Biotechnology). The solutions were then incubated at 4° C. for 30 minutes with gentle agitation to fully lyse cells. Cell lysates were centrifuged at 13,000 rpm for 10 minutes at 4° C. and pellets were discarded. Total protein concentrations in the lysates were determined by BCA assays (Beyotime Biotechnology). Cell lysates were mixed with Laemmli loading buffer to 1× and heated at 99° C. for 5 min. Proteins were resolved on SDS-PAGE and visualized by chemiluminescence. Images were taken by a ChemiDoc MP Imaging system (Bio-Rad). Protein bands were quantitated using the accompanied software provided by Bio-Rad.
The percentage of TYK2 protein degradation of each compound at 0.5 and 5 μM determined in MOLT-4 cells as described in Methods.

TYK2, sequence (P29597 whole entry): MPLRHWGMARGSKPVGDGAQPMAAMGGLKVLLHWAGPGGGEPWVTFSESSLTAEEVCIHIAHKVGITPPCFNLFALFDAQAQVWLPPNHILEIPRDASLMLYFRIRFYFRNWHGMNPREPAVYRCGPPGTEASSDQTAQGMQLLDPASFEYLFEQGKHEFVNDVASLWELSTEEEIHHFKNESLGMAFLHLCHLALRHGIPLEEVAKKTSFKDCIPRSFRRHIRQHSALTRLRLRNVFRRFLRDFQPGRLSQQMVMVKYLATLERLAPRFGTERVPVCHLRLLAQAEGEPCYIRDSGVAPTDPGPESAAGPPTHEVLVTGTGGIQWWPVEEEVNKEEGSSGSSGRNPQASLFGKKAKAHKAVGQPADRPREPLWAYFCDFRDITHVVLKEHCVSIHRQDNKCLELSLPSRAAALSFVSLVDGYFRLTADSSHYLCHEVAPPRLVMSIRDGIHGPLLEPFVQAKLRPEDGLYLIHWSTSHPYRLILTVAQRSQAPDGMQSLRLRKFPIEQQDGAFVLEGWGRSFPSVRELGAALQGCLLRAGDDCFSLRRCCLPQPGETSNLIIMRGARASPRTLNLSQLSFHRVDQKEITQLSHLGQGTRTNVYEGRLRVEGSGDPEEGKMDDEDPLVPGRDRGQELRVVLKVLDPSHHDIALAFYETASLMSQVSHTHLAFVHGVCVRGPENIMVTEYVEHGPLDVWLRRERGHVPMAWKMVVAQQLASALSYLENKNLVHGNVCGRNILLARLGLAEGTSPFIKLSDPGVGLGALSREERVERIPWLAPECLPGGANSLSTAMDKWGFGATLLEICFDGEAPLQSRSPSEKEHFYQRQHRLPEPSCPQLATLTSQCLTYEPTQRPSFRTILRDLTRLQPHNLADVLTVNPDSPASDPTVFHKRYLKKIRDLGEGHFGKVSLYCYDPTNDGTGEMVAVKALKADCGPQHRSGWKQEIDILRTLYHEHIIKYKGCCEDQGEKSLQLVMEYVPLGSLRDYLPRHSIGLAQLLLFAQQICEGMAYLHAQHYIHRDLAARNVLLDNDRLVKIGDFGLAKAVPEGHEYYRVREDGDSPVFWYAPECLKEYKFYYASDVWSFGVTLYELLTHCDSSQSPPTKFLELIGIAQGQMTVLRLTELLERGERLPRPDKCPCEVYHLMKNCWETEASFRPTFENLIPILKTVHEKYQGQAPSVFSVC

| SMILES | TYK2 Degradation (0.5 μM) | TYK2 Degradation (5 μM) |
| --- | --- | --- |
| CNC(=O)c1nnc(NC(=O)CNC(=O)COCC(=O)N[C@H](C(=O)N2C[C@H](O)C[C@H]2C(=O)NCc2ccc(-c3scnc3C)cc2)C(C)(C)C)cc1Nc1cccc(-c2ncn(C)n2)c1OC [CPD-025, 6-(2-(2-(2-(((S)-1-((2S,4R)-4-Hydroxy-2-((4-(4-methylthiazol-5-yl)benzyl)carbamoyl)pyrrolidin-1-yl)-3,3-dimethyl-1-oxobutan-2-yl)amino)-2-oxoethoxy)acetamido)acetamido)-4-((2-methoxy-3-(1-methyl-1H-1,2,4-triazol-3-yl)phenyl)amino)-N-methylpyridazine-3-carboxamide] | ≤20% | ≤20% |
| CNC(=O)c1nnc(NC(=O)CNC(=O)CCOCCC(=O)N[C@H](C(=O)N2C[C@H](O)C[C@H]2C(=O)NCc2ccc(-c3scnc3C)cc2)C(C)(C)C)cc1Nc1cccc(-c2ncn(C)n2)c1OC [CPD-026, 6-(2-(3-(3-(((S)-1-((2S,4R)-4-Hydroxy-2-((4-(4-methylthiazol-5-yl)benzyl)carbamoyl)pyrrolidin-1-yl)-3,3-dimethyl-1-oxobutan-2-yl)amino)-3-oxopropoxy)propanamido)acetamido)-4-((2-methoxy-3-(1-methyl-1H-1,2,4-triazol-3-yl)phenyl)amino)-N-methylpyridazine-3-carboxamide] | ≤20% | ≤20% |
| CNC(=O)c1nnc(NC(=O)CNC(=O)COCCOCC(=O)N[C@H](C(=O)N2C[C@H](O)C[C@H]2C(=O)NCc2ccc(-c3scnc3C)cc2)C(C)(C)C)cc1Nc1cccc(-c2ncn(C)n2)c1OC [CPD-027, 6-((S)-13-((2S,4R)-4-Hydroxy-2-((4-(4-methylthiazol-5-yl)benzyl)carbamoyl)pyrrolidine-1-carbonyl)-14,14-dimethyl-4,11-dioxo-6,9-dioxa-3,12-diazapentadecanamido)-4-((2-methoxy-3-(1-methyl-1H-1,2,4-triazol-3-yl)phenyl)amino)-N-methylpyridazine-3-carboxamide] | ≤20% | ≤20% |
| CNC(=O)c1nnc(NC(=O)CNC(=O)CCOCCOCCC(=O)N[C@H](C(=O)N2C[C@H](O)C[C@H]2C(=O)NCc2ccc(-c3scnc3C)cc2)C(C)(C)C)cc1Nc1cccc(-c2ncn(C)n2)c1OC [CPD-028, 6-((S)-15-((2S,4R)-4-Hydroxy-2-((4-(4-methylthiazol-5-yl)benzyl)carbamoyl)pyrrolidine-1-carbonyl)-16,16-dimethyl-4,13-dioxo-7,10-dioxa-3,14-diazaheptadecanamido)-4-((2-methoxy-3-(1-methyl-1H-1,2,4-triazol-3-yl)phenyl)amino)-N-methylpyridazine-3-carboxamide] | ≤20% | ≤20% |
| CNC(=O)c1nnc(NC(=O)CNC(=O)COCCOCCOCC(=O)N[C@H](C(=O)N2C[C@H](O)C[C@H]2C(=O)NCc2ccc(-c3scnc3C)cc2)C(C)(C)C)cc1Nc1cccc(-c2ncn(C)n2)c1OC [CPD-029, 6-((S)-16-((2S,4R)-4-Hydroxy-2-((4-(4-methylthiazol-5-yl)benzyl)carbamoyl)pyrrolidine-1-carbonyl)-17,17-dimethyl-4,14-dioxo-6,9,12-trioxa-3,15-diazaoctadecanamido)-4-((2-methoxy-3-(1-methyl-1H-1,2,4-triazol-3-yl)phenyl)amino)-N-methylpyridazine-3-carboxamide] | ≤20% | ≤20% |
| CNC(=O)c1nnc(NC(=O)CNC(=O)CCOCCOCCOCCC(=O)N[C@H](C(=O)N2C[C@H](O)C[C@H]2C(=O)NCc2ccc(-c3scnc3C)cc2)C(C)(C)C)cc1Nc1cccc(-c2ncn(C)n2)c1OC [CPD-030, 6-((S)-18-((2S,4R)-4-Hydroxy-2-((4-(4-methylthiazol-5-yl)benzyl)carbamoyl)pyrrolidine-1-carbonyl)-19,19-dimethyl-4,16-dioxo-7,10,13-trioxa-3,17-diazaicosanamido)-4-((2-methoxy-3-(1-methyl-1H-1,2,4-triazol-3-yl)phenyl)amino)-N-methylpyridazine-3-carboxamide] | ≤20% | ≤20% |
| CNC(=O)c1nnc(NC(=O)CNC(=O)CCOCCOCCOCCOCCC(=O)N[C@H](C(=O)N2C[C@H](O)C[C@H]2C(=O)NCc2ccc(-c3scnc3C)cc2)C(C)(C)C)cc1Nc1cccc(-c2ncn(C)n2)c1OC [CPD-031, N^1—((S)-1-((2S,4R)-4-Hydroxy-2-((4-(4-methylthiazol-5-yl)benzyl)carbamoyl)pyrrolidin-1-yl)-3,3-dimethyl-1-oxobutan-2-yl)-N^16-(2-((5-((2-methoxy-3-(1-methyl-1H-1,2,4-triazol-3-yl)phenyl)amino)-6-(methylcarbamoyl)pyridazin-3-yl)amino)-2-oxoethyl)-4,7,10,13-tetraoxahexadecanediamide] | ≤20% | ≤20% |
| CNC(=O)c1nnc(NC(=O)CNC(=O)COCCOCCOCCOCCOCC(=O)N[C@H](C(=O)N2C[C@H](O)C[C@H]2C(=O)NCc2ccc(-c3scnc3C)cc2)C(C)(C)C)cc1Nc1cccc(-c2ncn(C)n2)c1OC [CPD-032, N^1—((S)-1-((2S,4R)-4-Hydroxy-2-((4-(4-methylthiazol-5-yl)benzyl)carbamoyl)pyrrolidin-1-yl)-3,3-dimethyl-1-oxobutan-2-yl)-N^17-(2-((5-((2-methoxy-3-(1-methyl-1H-1,2,4-triazol-3-yl)phenyl)amino)-6-(methylcarbamoyl)pyridazin-3-yl)amino)-2-oxoethyl)-3,6,9,12,15-pentaoxaheptadecanediamide] | ≤20% | ≤20% |
| CNC(=O)c1nnc(NC(=O)CNC(=O)CCOCCOCCOCCOCCOCCC(=O)N[C@H](C(=O)N2C[C@H](O)C[C@H]2C(=O)NCc2ccc(-c3scnc3C)cc2)C(C)(C)C)cc1Nc1cccc(-c2ncn(C)n2)c1OC [CPD-033, N^1—((S)-1-((2S,4R)-4-Hydroxy-2-((4-(4-methylthiazol-5-yl)benzyl)carbamoyl)pyrrolidin-1-yl)-3,3-dimethyl-1-oxobutan-2-yl)-N^19-(2-((5-((2-methoxy-3-(1-methyl-1H-1,2,4-triazol-3-yl)phenyl)amino)-6-(methylcarbamoyl)pyridazin-3-yl)amino)-2-oxoethyl)-4,7,10,13,16-pentaoxanonadecanediamide] | ≤20% | ≤20% |
| CNC(=O)c1nnc(NC(=O)CNC(=O)CCC(=O)N[C@H](C(=O)N2C[C@H](O)C[C@H]2C(=O)NCc2ccc(-c3scnc3C)cc2)C(C)(C)C)cc1Nc1cccc(-c2ncn(C)n2)c1OC [CPD-034, N^1—((S)-1-((2S,4R)-4-Hydroxy-2-((4-(4-methylthiazol-5-yl)benzyl)carbamoyl)pyrrolidin-1-yl)-3,3-dimethyl-1-oxobutan-2-yl)-N^4-(2-((5-((2-methoxy-3-(1-methyl-1H-1,2,4-triazol-3-yl)phenyl)amino)-6-(methylcarbamoyl)pyridazin-3-yl)amino)-2-oxoethyl)succinamide] | ≤20% | ≤20% |
| CNC(=O)c1nnc(NC(=O)CNC(=O)CCCC(=O)N[C@H](C(=O)N2C[C@H](O)C[C@H]2C(=O)NCc2ccc(-c3scnc3C)cc2)C(C)(C)C)cc1Nc1cccc(-c2ncn(C)n2)c1OC [CPD-035, N^1—((S)-1-((2S,4R)-4-Hydroxy-2-((4-(4-methylthiazol-5-yl)benzyl)carbamoyl)pyrrolidin-1-yl)-3,3-dimethyl-1-oxobutan-2-yl)-N^5-(2-((5-((2-methoxy-3-(1-methyl-1H-1,2,4-triazol-3-yl)phenyl)amino)-6-(methylcarbamoyl)pyridazin-3-yl)amino)-2-oxoethyl)glutaramide] | ≤20% | ≤20% |
| CNC(=O)c1nnc(NC(=O)CNC(=O)CCCCC(=O)N[C@H](C(=O)N2C[C@H](O)C[C@H]2C(=O)NCc2ccc(-c3scnc3C)cc2)C(C)(C)C)cc1Nc1cccc(-c2ncn(C)n2)c1OC [CPD-036, N^1-((S)-1-((2S,4R)-4-Hydroxy-2-((4-(4-methylthiazol-5-yl)benzyl)carbamoyl)pyrrolidin-1-yl)-3,3-dimethyl-1-oxobutan-2-yl)-N^6-(2-((5-((2-methoxy-3-(1-methyl-1H-1,2,4-triazol-3-yl)phenyl)amino)-6-(methylcarbamoyl)pyridazin-3-yl)amino)-2-oxoethyl)adipamide] | ≤20% | 40% |
| CNC(=O)c1nnc(NC(=O)CNC(=O)CCCCCC(=O)N[C@H](C(=O)N2C[C@H](O)C[C@H]2C(=O)NCc2ccc(-c3scnc3C)cc2)C(C)(C)C)cc1Nc1cccc(-c2ncn(C)n2)c1OC [CPD-037, N^1—((S)-1-((2S,4R)-4-Hydroxy-2-((4-(4-methylthiazol-5-yl)benzyl)carbamoyl)pyrrolidin-1-yl)-3,3-dimethyl-1-oxobutan-2-yl)-N^7-(2-((5-((2-methoxy-3-(1-methyl-1H-1,2,4-triazol-3-yl)phenyl)amino)-6-(methylcarbamoyl)pyridazin-3-yl)amino)-2-oxoethyl)heptanediamide] | ≤20% | 30% |
